Results on 2 compounds are retold here after patent publication US10054581B1, “Inhibitors of notch signaling pathway and use thereof in treatment of cancers” (Ecole Polytechnique Federale de Lausanne (EPFL), priority 2011, dated 2018).

For series [1], the system named is NICD/MAML1 Notch transcriptional activation complex. Put plainly: MAML1 rescue: HeLa cells co-transfected with NICD and MAML1-FLAG, 12×CSL luciferase. The series is classed as cell-based. The following applies: 24 hours. How it is done:
HeLa cells were co-transfected 800 ng of NICD+3 μg of pCDNA3.1 or 800 ng of NICD+1 μg of MAML1-FLAG or 800 ng of NICD+3 μg of MAML1-FLAG expression vectors. To measure Notch pathway activation, pGL4.26-12×CSL luciferase plasmid was also introduced into the cells. SV40 renilla was used as an internal control. Cells transfected with different combinations and amounts of plasmid were treated with DMSO or increasing concentration of 6-(4-Tert-Butylphenoxy)Pyridin-3-Amine (I3) (1, 2.5, 5 and 10 μM) for 24 hours. 12×CSL driven luciferase activity was measured using dual luciferase assay system.
NICD-GFP overexpression studies were performed using pEGFP-C1-NICD expression plasmid. The FLAG-CMV2 plasmid expressing MAML1-FLAG was a kind gift from Dr. Lizi Wu, Harvard Medical School, Boston.
To further investigate the mechanism of action of 6-(4-Tert-Butylphenoxy)Pyridin-3-Amine (I3), Applicants speculated that 6-(4-Tert-Butylphenoxy)Pyridin-3-Amine (I3) might be targeting one of the components of the transcriptional activation complex. The over expression of this target protein may titrate out 6-(4-Tert-Butylphenoxy)Pyridin-3-Amine (I3) compound and thus rescue 6-(4-Tert-Butylphenoxy)Pyridin-3-Amine (I3) induced pathway inhibition. […] The Notch pathway activation was measured by introducing 12×CSL luciferase plasmid. […]

Series [2] deals with TALL1. The experiment in a line: Cell cycle analysis (Ki67 and Hoechst stain), TALL1. Type of series: cell-based, human. The note with it: 10 μM. How it is done:
FIGS. 6A-6D show 6-(4-Tert-Butylphenoxy)Pyridin-3-Amine (I3) induces G0/G1 cell cycle arrest and apoptosis in human T cell acute lymphoblastic leukemia cell lines and human breast cancer cell line HCC1187. […] Percentage of Annexin V positive (apoptotic) cell population was measured using flow cytometry.
In addition to induction of apoptosis, the proliferative arrest observed in 6-(4-Tert-Butylphenoxy)Pyridin-3-Amine (I3) treated human leukemic cell lines and breast cancer cell line also appears to be due to cell cycle arrest in G0/G1 phase of the cell cycle. Leukemic cell lines (RPMI8402, KOPTK1 and TALL1) and breast cancer cell lines were treated with 6-(4-Tert-Butylphenoxy)Pyridin-3-Amine (I3) for 48 hours and cell cycle status was determined using Ki67 and Hoechst stain.

The subject of series [3] is intestinal tissue (goblet cells). The experiment in a line: Intestinal toxicity in mice (Alcian blue staining for goblet cells). Type of series: in vivo, mouse.
Series [4] has as its system active form of Notch1 (NICD). Put plainly: NICD Western blot (VAL1744) in DL4:N1 HeLa coculture. The series is classed as cell-based, human. The following applies: DL4- and N1-HeLa coculture, DAPT 10 μM, 24 hours. How it is done:
Cells were lysed in RIPA buffer (50 mM Tris.Cl, pH 7.5, 150 mM NaCl, 1% nonidet P-40, 0.5% sodium deoxycholate and 0.1% SDS) for 30 minutes at 4° C. Lysed cells were centrifuged to remove the debris at 14000 rpm at 4° C. Supernatant was transferred to a new eppendorf tube. The protein concentration was determined by Bradford assay using spectrophotometer (Ultrospec 3000 pro). 40 μg of protein were denatured in 1×SDS gel loading buffer (100 mM Tris.Cl, pH 6.8, 200 mM DTT, 4% SDS, 0.2% bromophenol, 20% glycerol) by heating at 99° C. for 5 minutes. Denatured protein samples were stored on ice until loading on to the acrylamide gel. The samples were run on 8% or 10% acrylamide gel in Tris-glycine electrophoresis buffer (25 mM Tris, 250 mM glycine, 0.1% SDS). […]
For immunoblotting, membranes were blocked with 5% milk and incubated overnight with primary antibodies at 4° C. […] Signal was detected with Super Signal West chemiluminescent substrate (Thermo Scientific, catalog number 34077).
To assess the Notch pathway activation potential of the stable cell lines, DL4 and N1 stable HeLa cells (DL4-HeLa and N1-HeLa, respectively) were cocultured in 1:1 ratio in a 6-well plate and grown to confluency. […] On the other hand, in the absence of ligand (DL4-HeLa cells) or in the presence of GSI (DAPT) NICD levels were not detected, indicating a loss of Notch signalling (data not shown). […]

“Also recorded” adds a separate entry of the source.

On to `CC(C)(C)c1ccc(Oc2ccc(N)cn2)cc1` [I3, 6-(4-Tert-Butylphenoxy)Pyridin-3-Amine], for which the “Notch signalling, NICD + 1 μg MAML1” value in series [1] (800 ng NICD + 1 μg MAML1-FLAG, I3 1-10 μM) is listed as “can block Notch signalling in a concentration dependent manner”. The “Notch signalling, NICD alone (no MAML1)” value in series [1] (800 ng NICD, I3 1, 2.5, 5 and 10 μM) is “can block Notch signalling in a concentration dependent manner; also recorded: could block Notch signalling activations”. For the same compound, in series [2] (48 hours), the cell cycle status result is on record as “induces an arrest in the G0/G1 phase of the cell cycle”. Also, the “increase in cells arrested in G0/G1 phase of the cell cycle” value in series [2] (stated jointly for RPMI8402, KOPTK1 and TALL1) was 20-30%. For the same compound, the “intestinal architecture / goblet cell metaplasia” value in series [3] (C57B16 mice, 25 mg/kg i.p., 7 consecutive days, analysed day 8, 25 mg/kg) was “completely normal with intact architecture and no indication of goblet cell metaplasia; also recorded: did not perturb intestinal homeostasis and without any indication of goblet cell accumulation”. The “goblet cell numbers and intestinal architecture” value in series [3] (NOD/SCID γc−/− mice with RPMI 8402 xenotransplant, treated for 27 days) is “did not reveal any abnormality in the goblet cell numbers and intestinal architecture”.

Turning to `C[C@H](NC(=O)Cc1cc(F)cc(F)c1)C(=O)N[C@H](C(=O)OC(C)(C)C)c1ccccc1` [DAPT, N—[N-(3,5-difluorophenacetyl-Lalanyl)]-(S)-phenylglycine t-butyl ester, reference compound], the “NICD levels (Western blot)” value in series [4] was “can be blocked by DAPT treatment”.
